Assay type in all cases: binding
In one assay the target is T1, FZD4 (Homo sapiens, UniProt Q9ULV1).
T1 construct: purchased Promega (in-house HiBiT-GPCR construct library, NanoBRET)
T1 sequence (Q9ULV1 37-537): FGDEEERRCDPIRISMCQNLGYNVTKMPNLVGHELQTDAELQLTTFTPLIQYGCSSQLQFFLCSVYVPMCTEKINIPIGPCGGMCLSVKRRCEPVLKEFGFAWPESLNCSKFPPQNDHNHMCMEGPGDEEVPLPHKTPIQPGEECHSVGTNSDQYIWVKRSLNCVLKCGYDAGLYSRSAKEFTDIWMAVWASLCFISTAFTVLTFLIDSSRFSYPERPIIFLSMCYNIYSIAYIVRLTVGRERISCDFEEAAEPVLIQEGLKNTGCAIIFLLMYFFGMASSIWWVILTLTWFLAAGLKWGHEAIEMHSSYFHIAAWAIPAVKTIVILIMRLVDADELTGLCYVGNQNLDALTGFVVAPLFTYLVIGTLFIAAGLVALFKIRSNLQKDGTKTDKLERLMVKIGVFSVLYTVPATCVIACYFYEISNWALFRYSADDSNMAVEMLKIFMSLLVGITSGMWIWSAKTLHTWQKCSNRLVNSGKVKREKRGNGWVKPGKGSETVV
As to the kind of experiment: NanoBRET screen HiBiT-FZD4 in HEK293. As for the experimental part: (§1) Each tracer candidate was screened across the entire library of HiBiT-GPCR constructs using NanoBRET as the detection modality. As depicted in Figure 4A, the specificity of interactions was evaluated through decrease in BRET due to competitive displacement of a bound tracer by excess parental compound. Each tracer was analyzed for binding to each HiBiT-GPCR fusion in the absence and in the presence of competing parental compound. Briefly, HEK293 cells were transfected with HiBiT-GPCR constructs diluted into promoterless DNA to reduce expression and maximize translocation to the cell surface. Each tracer candidate was then screened at concentrations of 1 μM and 0.1 μM across cells expressing these fusions. Cells were treated for 1.5 h with tracer either alone or in the presence of 20 μM competing parental compound (i.e., control). BRET was measured upon addition of purified LgBiT and subsequent complementation with HiBiT genetically fused to a GPCR. The specificity of interactions was assessed through a decrease in BRET signal due to competitive displacement of the bound tracer. To further gauge the robustness of these interactions, the fold response over the control (i.e., BRETtracer/BRETcontrol) was calculated. We chose a 1.5-fold response, which translates to ≥7-fold signal over noise as the minimal threshold required to score an interaction as positive. […]. Below we highlight the screening results obtained for our exemplary fluorescent tracers based on Clozapine, Amitriptyline and AZD1283.
(§2) HiBiT-GPCR DNA constructs were diluted in 10 mM Tris pH 8 to a final concentration of 0.01 μg/μL, arrayed in 96-well plates and stored at −20 °C. For transfection, HEK293 cells were suspended in Opti-MEM (without phenol red) supplemented with 2% fetal bovine serum (Seradigm) and 100 units/mL penicillin–streptomycin (Gibco) at a final concentration of 220,000 cells/mL and dispensed into white 96-well plates at 90 μL/well. Subsequent transfections and screens were carried using an Agilent Bravo Automated Liquid Handling Platform. First, the 96-well HiBiT DNA arrays were diluted 25-fold in Opti-MEM (without serum or phenol red) to a final concentration of 0.0004 μg/μL and 20 μL of the diluted DNAs were transferred into new 96-well plates. Next, promoterless carrier DNA (1 μg/μL) was diluted 25-fold (0.04 μg/μL) and then dispensed into the diluted arrays at 20 μL/well. Following brief mixing, Viafect transfection reagent (Promega) diluted 16-fold into Opti-MEM was dispensed into the plates at 40 μL/well. After mixing by pipetting, plates were incubated for 10 min on the pipetting station deck. The DNA-transfection reagent complexes were then added to plates containing cells. To facilitate the screen, 10 μL of DNA-transfection reagent complexes were added in duplicates to the top 4 and bottom 4 rows, resulting in two identical 48-well arrays per plate. Plates with transfected cells were incubated for 18–20 h at 37 °C/5% CO2. A screen of each tracer across the entire library using two different concentrations requires duplicate plates of transfected cells. Depending on the number of tracers being screened, transfections can be scaled up using the same ratios. The next day, for each tracer, four 20× screening solutions in tracer dilution buffer (Promega) were prepared: two duplicates at final concentration of 20 μM and two duplicates at a final concentration of 2 μM. A competing unmodified compound was added to one of each duplicate at a final concentration of 400 μM. The four resulting solutions were diluted 4-fold in Opti-MEM without serum or phenol red to generate 5× solutions (5 µM and 0.5 µM tracer +/− 100 μM competing compound). To screen the library, a BioTek MultiFlo FX liquid dispenser was used to dispense 22.5 µL of tracer solution to the top 4 rows and 22.5 µL tracer + competing compound solution to the 4 bottom rows. Plates were briefly mixed on an orbital shaker and incubated for 1.5 h at room temperature. […]
For orientation: BRET reads energy transfer from a luciferase to a nearby fluorophore.

The next assay deals with T2, MLNR (Homo sapiens, UniProt O43193).
T2 construct: purchased Promega (in-house HiBiT-GPCR construct library, NanoBRET)
T2 sequence (O43193 whole entry): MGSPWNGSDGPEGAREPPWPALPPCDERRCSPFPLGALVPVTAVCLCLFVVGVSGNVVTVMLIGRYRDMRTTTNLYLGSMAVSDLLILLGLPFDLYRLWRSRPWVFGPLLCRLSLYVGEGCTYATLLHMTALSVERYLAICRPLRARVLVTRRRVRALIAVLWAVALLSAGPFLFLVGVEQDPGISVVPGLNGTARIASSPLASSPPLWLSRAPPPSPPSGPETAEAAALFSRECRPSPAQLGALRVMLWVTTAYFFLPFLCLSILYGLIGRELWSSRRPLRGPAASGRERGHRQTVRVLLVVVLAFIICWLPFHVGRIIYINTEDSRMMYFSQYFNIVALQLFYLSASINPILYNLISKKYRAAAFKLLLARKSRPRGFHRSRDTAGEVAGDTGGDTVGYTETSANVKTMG
As to the kind of experiment: NanoBRET screen HiBiT-MLNR in HEK293. On the procedure: as §1, §2

In the next assay the target is T3, CCR8 (Homo sapiens, UniProt P51685).
T3 construct: purchased Promega (in-house HiBiT-GPCR construct library, NanoBRET)
T3 sequence (P51685 whole entry): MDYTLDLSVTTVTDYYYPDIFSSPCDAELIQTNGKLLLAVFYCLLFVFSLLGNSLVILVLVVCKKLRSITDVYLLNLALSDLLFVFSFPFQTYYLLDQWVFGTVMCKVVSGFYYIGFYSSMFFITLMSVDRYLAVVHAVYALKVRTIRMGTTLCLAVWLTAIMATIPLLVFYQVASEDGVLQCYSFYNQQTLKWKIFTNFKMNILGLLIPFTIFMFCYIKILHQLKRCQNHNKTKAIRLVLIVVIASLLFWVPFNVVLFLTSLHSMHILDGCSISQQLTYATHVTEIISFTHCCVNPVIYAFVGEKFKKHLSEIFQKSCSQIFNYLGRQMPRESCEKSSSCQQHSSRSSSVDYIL
Briefly: NanoBRET screen HiBiT-CCR8 in HEK293. As for the experimental part:
as §1, §2

In the next assay the target is T4, CCR6 (Homo sapiens, UniProt P51684).
T4 construct: purchased Promega (in-house HiBiT-GPCR construct library, NanoBRET)
T4 sequence (P51684 1-374): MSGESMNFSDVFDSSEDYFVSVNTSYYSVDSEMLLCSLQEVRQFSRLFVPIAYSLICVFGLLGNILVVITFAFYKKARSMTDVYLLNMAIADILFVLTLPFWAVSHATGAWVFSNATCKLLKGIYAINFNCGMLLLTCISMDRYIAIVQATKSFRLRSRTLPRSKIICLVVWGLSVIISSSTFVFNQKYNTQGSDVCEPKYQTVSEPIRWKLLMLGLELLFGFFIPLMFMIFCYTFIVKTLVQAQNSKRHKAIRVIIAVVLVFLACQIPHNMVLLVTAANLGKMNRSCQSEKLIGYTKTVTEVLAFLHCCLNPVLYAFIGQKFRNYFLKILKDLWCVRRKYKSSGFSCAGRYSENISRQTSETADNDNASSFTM
Briefly: NanoBRET screen HiBiT-CCR6 in HEK293. On the procedure: as §1, §2

SMILES strings stand for the structures.

Turning to `O=C(CCOCCOCCOCCOCCNC(=O)CCc1ccc2n1[B-](F)(F)[N+]1=C(c3ccc[nH]3)C=CC1=C2)NCCCN1CCN(C2=Nc3ccccc3Oc3ccc(Cl)cc32)CC1` [Loxapine-a-2-NB590], the “NanoBRET Fold Response” value is 0.98 on FZD4 (FZD4, tracer 0.1μM); 0.89 at FZD4 (FZD4, tracer 1μM); 1.20 on MLNR (MLNR, tracer 0.1μM); 1.16 at MLNR (MLNR, tracer 1μM); 1.02 on CCR8 (CCR8, tracer 0.1μM); 1.10 on CCR8 (CCR8, tracer 1μM). Moreover, the “NanoBRET Fold Response” value on CCR6 (CCR6, tracer 0.1μM) came out at 1.00; on CCR6 (CCR6, tracer 1μM) it was 0.97.
For the compound `COc1ccccc1N1CCN(CCCCN2C(=O)c3ccc(CNC(=O)CCOCCOCCOCCOCCNC(=O)CCc4ccc5n4[B-](F)(F)[N+]4=C(c6ccc[nH]6)C=CC4=C5)cc3C2=O)CC1` [NAN-190-2-NB590], the “NanoBRET Fold Response” value is reported as 1.03 on FZD4 (FZD4, tracer 0.1μM); 1.08 on FZD4 (FZD4, tracer 1μM); 0.67 on MLNR (MLNR, tracer 0.1μM); 0.92 on CCR8 (CCR8, tracer 0.1μM); 0.92 on CCR8 (CCR8, tracer 1μM); 0.99 at CCR6 (CCR6, tracer 0.1μM). The “NanoBRET Fold Response” value at CCR6 (CCR6, tracer 1μM) came out at 1.02.
In the case of `CC(C)N(CC[C@H](c1ccccc1)c1cc(CCNC(=O)c2ccc(CNC(=O)CCc3ccc4n3[B-](F)(F)[N+]3=C(c5ccc[nH]5)C=CC3=C4)cc2)ccc1O)C(C)C` [Tolterodine-BZ-NB590], the “NanoBRET Fold Response” value is 0.93 on FZD4 (FZD4, tracer 0.1μM); 1.07 at FZD4 (FZD4, tracer 1μM); 1.06 on MLNR (MLNR, tracer 0.1μM); 1.05 on MLNR (MLNR, tracer 1μM); 0.92 at CCR8 (CCR8, tracer 0.1μM); 1.00 on CCR8 (CCR8, tracer 1μM). The “NanoBRET Fold Response” value at CCR6 (CCR6, tracer 0.1μM) stood at 1.05; on CCR6 (CCR6, tracer 1μM), 1.03.
As for `O=C(CCc1ccc2n1[B-](F)(F)[N+]1=C(c3ccc[nH]3)C=CC1=C2)NCCOCCOCCNC(=O)OCCOCCN1CCN(C2=Nc3ccccc3Sc3ccccc32)CC1` [Quetiapine-a-2-NB590], the “NanoBRET Fold Response” value at FZD4 (FZD4, tracer 0.1μM) worked out at 0.96; on FZD4 (FZD4, tracer 1μM) it was 0.91; at MLNR (MLNR, tracer 0.1μM), 1.02; on MLNR (MLNR, tracer 1μM), 0.86; at CCR8 (CCR8, tracer 0.1μM), 0.93; at CCR8 (CCR8, tracer 1μM) it was 1.16. Also, the “NanoBRET Fold Response” value on CCR6 (CCR6, tracer 0.1μM) is 1.05; at CCR6 (CCR6, tracer 1μM), 0.95.
In the case of `CN1CCN(C2=Nc3cc(Cl)ccc3Nc3ccc(CNC(=O)CCOCCOCCOCCOCCNC(=O)CCc4ccc5n4[B-](F)(F)[N+]4=C(c6ccc[nH]6)C=CC4=C5)cc32)CC1` [Clozapine-b-2-NB590], the “NanoBRET Fold Response” value was determined as 0.99 at FZD4 (FZD4, 0.1μM tracer); 1.03 on FZD4 (FZD4, 1μM tracer); 1.02 at MLNR (MLNR, 0.1μM tracer); 1.41 at MLNR (MLNR, 1μM tracer); 0.88 at CCR8 (CCR8, 0.1μM tracer); 0.89 on CCR8 (CCR8, 1μM tracer). Also, the “NanoBRET Fold Response” value was found to be 1.03 on CCR6 (CCR6, 0.1μM tracer) and 0.97 at CCR6 (CCR6, 1μM tracer).
Regarding `CC(C)N(CC[C@H](c1ccccc1)c1cc(CCNC(=O)CCOCCOCCOCCOCCNC(=O)CCc2ccc3n2[B-](F)(F)[N+]2=C(c4ccc[nH]4)C=CC2=C3)ccc1O)C(C)C` [Tolterodine-2-NB590], the “NanoBRET Fold Response” value on FZD4 (FZD4, tracer 0.1μM) worked out at 0.95; on FZD4 (FZD4, tracer 1μM), 0.96; on MLNR (MLNR, tracer 0.1μM) it was 0.87; at MLNR (MLNR, tracer 1μM), 1.15; at CCR8 (CCR8, tracer 0.1μM), 0.82; at CCR8 (CCR8, tracer 1μM) it was 1.07. For the same compound, the “NanoBRET Fold Response” value at CCR6 (CCR6, tracer 0.1μM) stood at 1.07; at CCR6 (CCR6, tracer 1μM) it was 1.01.
On to `CN(C)CCC=C1c2ccccc2CCc2ccc(C(=O)NCCNC(=O)CCOCCOCCOCCOCCNC(=O)CCc3ccc4n3[B-](F)(F)[N+]3=C(c5ccc[nH]5)C=CC3=C4)cc21` [Amitriptyline-a-2-NB590], for which the “NanoBRET Fold Response” value at FZD4 (tracer at 0.1μM) is 1.01; at FZD4 (tracer at 1μM) it was 1.01; at MLNR (tracer at 0.1μM), 1.05; on MLNR (tracer at 1μM), 1.05; at CCR8 (tracer at 0.1μM), 0.94; on CCR8 (tracer at 1μM), 0.97. The “NanoBRET Fold Response” value on CCR6 (tracer at 0.1μM) was 0.96; at CCR6 (tracer at 1μM), 0.94.
On to `Cc1cc2c(s1)Nc1ccccc1N=C2N1CCN(CCCNC(=O)CCOCCOCCOCCOCCNC(=O)CCc2ccc3n2[B-](F)(F)[N+]2=C(c4ccc[nH]4)C=CC2=C3)CC1` [Olanzapine-a-2-NB590], for which the “NanoBRET Fold Response” value is 1.00 on FZD4 (FZD4, tracer 0.1μM); 0.93 at FZD4 (FZD4, tracer 1μM); 1.27 at MLNR (MLNR, tracer 0.1μM); 1.15 on MLNR (MLNR, tracer 1μM); 0.96 on CCR8 (CCR8, tracer 0.1μM); 0.95 on CCR8 (CCR8, tracer 1μM). Further, the “NanoBRET Fold Response” value was determined as 1.00 at CCR6 (CCR6, tracer 0.1μM) and 1.21 at CCR6 (CCR6, tracer 1μM).
Regarding `N#CN=C(NCCCOc1cccc(CN2CCCCC2)c1)NCCNC(=O)CCOCCOCCOCCOCCNC(=O)CCc1ccc2n1[B-](F)(F)[N+]1=C(c3ccc[nH]3)C=CC1=C2` [Aminopotentidine-2-NB590], the “NanoBRET Fold Response” value is recorded as 0.98 on FZD4 (FZD4, tracer 0.1μM); 1.07 at FZD4 (FZD4, tracer 1μM); 0.97 at MLNR (MLNR, tracer 0.1μM); 1.00 at MLNR (MLNR, tracer 1μM); 0.99 at CCR8 (CCR8, tracer 0.1μM); 0.89 on CCR8 (CCR8, tracer 1μM). The “NanoBRET Fold Response” value at CCR6 (CCR6, tracer 0.1μM) came to 0.96; on CCR6 (CCR6, tracer 1μM), 1.00.
Consider `Cc1nc2n(c(=O)c1CCN1CCC(c3noc4cc(F)ccc34)CC1)CCCC2OC(=O)NCCOCCOCCOCCOCCNC(=O)CCc1ccc2n1[B-](F)(F)[N+]1=C(c3ccc[nH]3)C=CC1=C2` (stereo not shown) [Risperidone-2-NB590], for which the “NanoBRET Fold Response” value on FZD4 (FZD4, tracer 0.1μM) stood at 1.14; at FZD4 (FZD4, tracer 1μM) it was 1.01; at MLNR (MLNR, tracer 0.1μM) it was 0.93; at MLNR (MLNR, tracer 1μM), 0.97; at CCR8 (CCR8, tracer 0.1μM), 0.98; at CCR8 (CCR8, tracer 1μM), 0.89. The “NanoBRET Fold Response” value is given as 1.07 at CCR6 (CCR6, tracer 0.1μM) and 0.91 on CCR6 (CCR6, tracer 1μM).
